What was measured:
[1] = test system: type 2 diabetic db/db mice; experiment: Micro-CT of ilium (femur) and lumbar vertebra 5, db/db mice; type: in vivo; details: adiporon 30 mg/kg/day, 4 weeks
Description: A leptin receptor-defective type 2 diabetic animal model (db/db mice) and a normal control group (db/m mice) were used, and the experiment was performed by dividing into 4 groups as follows: non-diabetic control group (dm cont, n=8), non-diabetic adiporon treatment group (dm+AdipoR, n=8), diabetic control group (db cont, n=8) and diabetic adiporon treatment group (db+AdipoR, n=8). The control group was fed a normal diet, and the adiporon treatment group was fed a diet comprising adiporon (30 mg/kg/day) for 4 weeks from 16 weeks of age. During the experiment, body weight was measured every week, fasting blood glucose was measured using an Accu-Chek meter (Roche Diagnostics, St. Louis, MO) every 2 weeks after blood was collected from the tail vein, and glycated hemoglobin (HbA1c) was measured every 4 weeks using a […] automatic analyzer (Bayer healthcare LLC, IN) after blood was collected from the tail vein. The temperature and humidity of the breeding room were maintained at 20˜25° C. and 50˜60%, respectively, and the lights were turned on and off at 12-hour intervals. The imaging was performed with micro-CT (Skyscan 1172, Belgium), the tube voltage was 60 kV, the tube current was 167 uA, 0.5 mm aluminum filtration was used, and the pixel size was 5.9 μm. For the shooting angle, a 2-dimensional image was reconstructed with Nrecon Reconstruction (Skyscan, Belgium). For 3D image analysis, CTAn (Skyscan, Belgium) was used, images were obtained by rotating 360°, and exposure time was 440 ms. A total of 7 types of indicators were used in this invention. BMD (bone mineral density, bone density) was measured based on phantoms of 0.25 g/cm^3 and 0.75 g/cm^3. BV/TV (Bone volume/Total volume, percent bone volume, %) is the ratio of voxels representing the solid region out of the total voxels present in the binarized and surfaced volume of interest, and it means the ratio occupied by bone trabeculae within the volume of interest, and i.s (Interception surfaces, mm2) means the generation of new bone. […] BS/BV (Bone surface/Bone volume, bone specific surface, mm^−1) is the ratio of the voxel surface area to the number of voxels in the binarized solid region within the volume of interest and it means the ratio of the surface area of the trabecular bone to the volume of the trabecular bone. The lower the value, the higher the bone strength. Tb.Th (trabecular thickness, mm) is obtained by averaging the diameters of these spheres, after placing a sphere comprising the corresponding voxel for each voxel representing the solid region within the volume of interest so that the size of the sphere is the largest that includes only the solid region and it means the average thickness of the trabecular bone. […] In the same way, using Tb.Sp (trabecular separation, mm), the average length between trabecular lines and Tb.N (trabecular number, mm^−1) were used to obtain the average number of trabecular lines.

[2] = test system: type 2 diabetic db/db mice; experiment: Immunofluorescence staining and western blot of bone tissue, db/db mice; type: in vivo; details: adiporon 30 mg/kg/day, 4 weeks
Description: A leptin receptor-defective type 2 diabetic animal model (db/db mice) and a normal control group (db/m mice) were used, and the experiment was performed by dividing into 4 groups as follows: non-diabetic control group (dm cont, n=8), non-diabetic adiporon treatment group (dm+AdipoR, n=8), diabetic control group (db cont, n=8) and diabetic adiporon treatment group (db+AdipoR, n=8).
The control group was fed a normal diet, and the adiporon treatment group was fed a diet comprising adiporon (30 mg/kg/day) for 4 weeks from 16 weeks of age. During the experiment, body weight was measured every week, fasting blood glucose was measured using an Accu-Chek meter (Roche Diagnostics, St. Louis, MO) every 2 weeks after blood was collected from the tail vein, and glycated hemoglobin (HbA1c) was measured every 4 weeks using a […] automatic analyzer (Bayer healthcare LLC, IN) after blood was collected from the tail vein. The temperature and humidity of the breeding room were maintained at 20˜25° C. and 50˜60%, respectively, and the lights were turned on and off at 12-hour intervals.
After removing tissues of the femur and L5 lumbar vertebrae, some of them were fixed in 10% formalin for immunostaining and decalcified. Thereafter, after neutralization with 0.5M Phosphate buffer (pH 7.4), washing, and embedding in paraffin. Tissue sections were cut to a thickness of 5 μm, and hematoxylin and eosin staining (H&E staining), trichrome staining, and Safranin O staining were performed. In bone tissue, double immunofluorescence staining method was performed using anti-adiponectin receptor 1/2 antibody, anti-perilipin-1 antibody, anti-RANKL antibody, anti-TNF-α antibody, and ApopTag Fluorescein In Situ Apoptosis Detection Kit (Chemicon International, Temecula, CA) and expression was observed using a confocal microscope.
Protein was extracted using Pro-Prep Protein Extraction Solution (Intron Biotechnology, Gyeonggi-Do, Korea), and SDS-PAGE (sodium dodecyl sulfate-polyacrylamide gel electrophoresis) was performed. The separated protein was transferred to a nitrocellulose membrane (Amersham Co., Buckinghamshire, England) and treated with Tris buffered saline (in TBS-T: 0.1% Tween-20 in Tris buffer saline, pH 7.5) containing 3% skim milk. After blocking for an hour, the blots were reacted in adiponectin receptor 1/2, total AMPK, phospho-Thr172AMPK, PGC-1α, Nrf-2, SOD1/2, NQO1, HO-1, NOX4, NF-κB and β-actin primary antibody solution, washing, reacting with a secondary antibody against each primary antibody, and then photosensitizing through ECL (Pierce, Rockford IL) to confirm the band. The expression level of each protein was normalized according to β-actin.

In the case of Cl.O=C(COc1ccc(C(=O)c2ccccc2)cc1)NC1CCN(Cc2ccccc2)CC1 [adiporon], the “Bone mineral density index (micro-CT)” value ([1]; ilium) is reported as “significantly increased and improved”, the “Bone surface index (micro-CT)” value ([1]; ilium) is reported as “significantly increased and improved” and the “Bone volume index (micro-CT)” value ([1]; ilium) is reported as “significantly increased and improved”. The “Trabecular number index (micro-CT)” value ([1]; ilium) was “significantly increased and improved”, the “Trabecular thickness index (micro-CT)” value ([1]; ilium) was “significantly increased and improved” and the “Trabecular thickness (micro-CT)” value ([1]; vertebrae (lumbar vertebrae 5)) was “increased and improved”. For the same compound, the “Activation of adiponectin-receptor 1-AMPK” value ([2]; ilium (femur), db/db mice) was “increased”, the “Decreased expression of adiponectin-receptor 1/2 (double immunofluorescence staining)” value ([2]; ilium (femur), db/db mice) was “restored” and the “Expression of PGC1α” value ([2]; ilium (femur), db/db mice) was “increased”. For the same compound, the “Expression of adiponectin-receptor 2-PPARα” value ([2]; ilium (femur), db/db mice) was “increased”, the “Expression of antioxidant enzymes (Nrf2, NQO1, HO-1, SOD1, SOD2)” value ([2]; ilium (femur), db/db mice) was “normalized” and the “Expression of oxidative stress markers (NOX4, NFkB)” value ([2]; ilium (femur), db/db mice) was “normalized”. For the same compound, the “Increase in apoptosis (TUNEL staining-positive)” value ([2]; ilium (femur), db/db mice) was “restored”, the “Increase in inflammatory response (TNF-α)” value ([2]; ilium (femur), db/db mice) was “restored” and the “Increase of adipocytes (perilipin-1 immunofluorescent staining)” value ([2]; ilium (femur), db/db mice) was “restored”. For the same compound, the “Increased expression of RANKL” value ([2]; ilium (femur), db/db mice) was “restored”, the “Activation of adiponectin-receptor 1-AMPK” value ([2]; lumbar vertebrae 5, db/db mice) was “increased” and the “Decreased expression of adiponectin-receptor 1/2 (double immunofluorescence staining)” value ([2]; lumbar vertebrae 5, db/db mice) was “reversed”. The “Expression of PGC1α” value ([2]; lumbar vertebrae 5, db/db mice) was “increased”, the “Expression of adiponectin-receptor 2-PPARα” value ([2]; lumbar vertebrae 5, db/db mice) was “increased” and the “Expression of antioxidant enzymes (Nrf2, NQO1, HO-1, SOD1, SOD2)” value ([2]; lumbar vertebrae 5, db/db mice) was “normalized”. For the same compound, the “Expression of oxidative stress markers (NOX4, NFkB)” value ([2]; lumbar vertebrae 5, db/db mice) was “normalized”, the “Increase in apoptosis (TUNEL staining-positive)” value ([2]; lumbar vertebrae 5, db/db mice) was “restored” and the “Increase in inflammatory response (TNF-α)” value ([2]; lumbar vertebrae 5, db/db mice) was “restored”. The “Increase of adipocytes (perilipin-1 immunofluorescent staining)” value ([2]; lumbar vertebrae 5, db/db mice) was “restored” and the “Increased expression of RANKL” value ([2]; lumbar vertebrae 5, db/db mice) was “restored”.

— US20240016788A1, “PHARMACEUTICAL COMPOSITION FOR PREVENTING OR TREATING DIABETIC AND POSTMENOPAUSAL OSTEOPOROSIS, CONTAINING ADIPORON” (PnP Biopharm Co., Ltd., priority 2020, published 2024)
